1 molecule from US20150366831A1, “THROMBORESISTANT/BACTERICIDAL S-NITROSO-N-[…] (SNAP)-DOPED NITRIC OXIDE RELEASE POLYMERS WITH ENHANCED STABILITY” (THE REGENTS OF THE UNIVERSITY OF MICHIGNA, priority 2013, published 2015) can be followed below.

The nature of this series: SNAP/E2As dry storage stability study. Format: physicochemical. The conditions noted are these: SNAP doped in E2As polymer. How it is done:
The stability of SNAP doped in the E2As polymer during dry storage was also evaluated. SNAP incorporated in E2As can potentially undergo thermal or photochemical decomposition during storage, thus limiting the available NO release capacity at the time of use. Therefore, 10 wt % SNAP/E2As films were stored with desiccant in the freezer in the dark, dry in the dark or in ambient light with desiccant at room temperature, and dry in the dark with desiccant at 37° C. and 50° C. These stability studies were conducted in a similar manner as the cumulative NO release experiments, where films were dissolved in DMAc to determine the amount of SNAP remaining in the polymer at various time points (as described herein). […] After 2 months, for example, the 10 wt % SNAP films stored in the freezer (−20° C.) in the dark maintain about 96% of the initial SNAP species, compared to 89% for films stored at room temperature and 82% for films stored at 37° C. (see FIG. 8). […]
SNAP/E2As films (consisting of 10 wt % SNAP) were placed under the following conditions in vials with desiccant: room temperature with ambient light, room temperature in dark, 37° C. in dark, and in the freezer (−20° C.) in dark. At various time points over a 4 month period, films were dissolved in DMAc, and the UV-Vis spectra was recorded to determine the % SNAP remaining in the film, as compared to the initial 10 wt % SNAP.

Consider `CC(=O)N[C@H](C(=O)O)C(C)(C)SN=O` (racemic) [SNAP, S-nitroso-N-acetylpenicillamine], for which the “Time for which SNAP is stable in the Elast-Eon E2As polymer” value is recorded as “at least 4 months”.
